Test results taken from paper PMC10388362, “Fluorescent Ligands Enable Target Engagement Studies for the Intracellular Allosteric Binding Site of the Chemokine Receptor CXCR2” (Journal of Medicinal Chemistry, 2023).

How the values were obtained:
CXCR2 [1] = target: T1, CXCR2 (Homo sapiens, UniProt P25025); experiment: Membrane-based NanoBRET saturation assay (CXCR2_Nluc membranes); type: binding; conditions: cell-free, membranes from HEK293T cells transiently expressing CXCR2_Nluc; read-out: Kd (equilibrium saturation binding)
T1 construct: Promega pNLF1-C (Nluc) #CXCR20TN00; host or cells: HEK293T, transient transfection (PEI)
T1 sequence (P25025 1-360): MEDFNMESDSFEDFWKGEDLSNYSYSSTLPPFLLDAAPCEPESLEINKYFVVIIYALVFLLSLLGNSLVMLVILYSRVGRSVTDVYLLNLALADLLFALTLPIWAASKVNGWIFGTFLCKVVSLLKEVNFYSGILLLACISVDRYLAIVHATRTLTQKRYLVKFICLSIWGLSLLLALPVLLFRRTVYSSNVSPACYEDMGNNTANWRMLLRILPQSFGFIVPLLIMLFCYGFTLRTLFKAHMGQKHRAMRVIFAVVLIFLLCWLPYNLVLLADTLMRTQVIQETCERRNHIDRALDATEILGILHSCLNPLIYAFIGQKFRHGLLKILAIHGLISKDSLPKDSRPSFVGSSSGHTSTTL
Protocol: Membranes from HEK293T cells transiently expressing the respective GPCR were prepared as follows. The medium of the transfected cells was refreshed after 24 h before cells were harvested 48 h post-transfection. The growth medium was removed, and the cells were carefully washed with cold phosphate-buffered saline (10 mL per Ø 15 cm dish). The cells were detached with 15 mL of ice-cold Tris-EDTA buffer (10 mM Tris, 0.5 mM EDTA, 5.4 mM KCl, 140 mM NaCl, pH 7.4) and subsequently centrifuged with 218g for 8 min. The supernatant was removed and the cells were resuspended in 10 mL of Tris-EDTA buffer. The cells were lysed with an Ultraturrax (20,000 rpm) used five times for 5 s with a 25 s break on ice in between. The lysate was centrifuged at 50,830g for 18 min at 4 °C. The supernatant was discarded, and the pellet was homogenized in a membrane buffer (50 mM Tris, 1 mM EDTA, 5 mM MgCl2, 100 μg/mL bacitracin, 5 μg/mL soybean trypsin inhibitor, pH 7.4) with a glass-teflon homogenizer. Aliquots of 250 μL were shock-frozen in liquid nitrogen and directly stored at −80 °C. Finally, the protein concentration was determined using the Lowry method.[43]
(§1) For the establishment of our NanoBRET binding assay, we referred to a recently published protocol.[45] The fluorescent ligands (9a–c) were dissolved in DMSO (1 mM) and further diluted to varying concentrations in an assay buffer (50 mM Na2HPO4, 50 mM KH2PO4, pH 7.4, 1 mg/mL saponin, 5% FBS) and 5 μL of these dilutions were pipetted to a 384-well plate. To determine the total binding, 5 μL of the assay buffer was added to the corresponding wells, while 5 μL of a solution of 3 in the assay buffer (final assay concentration: 1 μM) was used to determine nonspecific binding. Then, 20 μL of the membrane preparations diluted in the assay buffer (2 μg total protein/well) were added and the plates were incubated for 90 min at 37 °C. Subsequently, 5 μL of a furimazine solution (Promega, Mannheim, Germany, final assay dilution: 1:5000) was added to each well (final assay volume: 35 μL) before measuring luminescence with a CLARIOstar microplate reader using 620/10 and 475/30 nm emission filters after 5 min of incubation in the dark. Bioluminescence resonance energy transfer (BRET) was determined as the ratio of acceptor fluorescence and donor luminescence. The algorithms for one-site saturation binding from PRISM9.5 (GraphPad) were utilized to analyze total, nonspecific, and specific binding. Specific binding signals were calculated as a difference of total and nonspecific binding. If required, netBRET values were calculated as the difference between total BRET values and the values obtained in the absence of a fluorescent ligand. For selectivity studies with CCR2, CCR7, CCR9, and CXCR1, we modified the procedure described above.

CXCR1 = target: T2, CXCR1 (Homo sapiens, UniProt P25024); experiment: Membrane-based NanoBRET saturation assay, selectivity (CXCR1_Nluc membranes); type: binding; conditions: cell-free
T2 construct: host or cells: HEK293T, transient; membrane preparation
T2 sequence (P25024 1-350): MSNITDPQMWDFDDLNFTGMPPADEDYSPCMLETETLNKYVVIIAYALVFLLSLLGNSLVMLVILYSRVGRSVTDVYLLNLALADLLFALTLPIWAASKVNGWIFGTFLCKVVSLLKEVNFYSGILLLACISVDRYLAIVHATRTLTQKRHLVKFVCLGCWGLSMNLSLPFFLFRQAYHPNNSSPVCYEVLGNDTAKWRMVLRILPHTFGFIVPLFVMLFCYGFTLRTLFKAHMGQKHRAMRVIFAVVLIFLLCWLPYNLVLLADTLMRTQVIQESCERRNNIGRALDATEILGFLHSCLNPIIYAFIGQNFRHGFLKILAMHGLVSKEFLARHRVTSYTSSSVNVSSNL
Protocol: as §1

CXCR2 [2] = target: T1, CXCR2; experiment: Live cell NanoBRET saturation binding (HEK293T cells expressing CXCR2_Nluc)
Protocol: HEK293T cells were transfected with the plasmid (5.5 μg) for CXCR2_Nluc using polyethylenimine (PEI) as transfection reagent (PEI/DNA ratio 3:1). After 24 h at 37 °C and 5% CO2, the cells were detached with DMEM and transferred to a white F-bottom 384-well plate (10,000 cells/well), which was coated with 5 μL/well poly-D-lysine (0.1 mg/mL, dissolved in water), and incubated for further 24 h at 37 °C and 5% CO2. Subsequently, the cells were washed with phosphate-buffered saline (Gibco DPBS, with CaCl2 and MgCl2). The assay medium (Gibco DMEM/F12, 15 mM HEPES, no phenol red supplemented with 5% FBS) was added and the cells were incubated at 37 °C for 30 min. […]
After 120 min of incubation at 37 °C, 5 μL of a furimazine solution (final assay dilution: 1:2500, diluted with assay medium) was added. Subsequent to a further incubation of 5 min in the dark at 37 °C, BRET ratios were measured with a CLARIOstar microplate reader using 620/10 and 475/30 nm emission filters. Total, nonspecific and specific binding, which was calculated as a difference of total and nonspecific binding, were analyzed using the algorithms for one-site saturation binding in PRISM9.5 (GraphPad). To determine the inhibition constants (Ki) of the potential competitors, data were normalized to total and nonspecific binding and analyzed using the one-site-fit Ki equation in PRISM9.5 (GraphPad).

Question: For Cc1ccc([C@H](Nc2c(Nc3cccc(C(=O)NCc4cn(CCOCCOCCOCCNC(=O)c5ccc(C(=O)[O-])c(-c6c7ccc(=[N+](C)C)cc-7oc7cc(N(C)C)ccc67)c5)nn4)c3O)c(=O)c2=O)C(C)(C)C)o1 [9a, (R)-4-((2-(2-(2-(2-(4-((3-((2-((2,2-Dimethyl-1-(5-methylfuran-2-yl)propyl)amino)-3,4-dioxocyclobut-1-en-1-yl)amino)-2-hydroxybenzamido)methyl)-1H-1,2,3-triazol-1-yl)ethoxy)ethoxy)ethoxy)ethyl)carbamoyl)-2-(6-(dimethylamino)-3-(dimethyliminio)-3H-xanthen-9-yl)benzoate], which Kd (CXCR2 [1]) is on record?
Answer: 4.17 ± 0.8 nM

Question: What about the Kd (CXCR1; CXCR1_Nluc membranes) of the same compound?
Answer: 198 ± 29 nM

Question: What about the “selectivity for CXCR2 compared to CXCR1” value (CXCR1; from Kd values) of the same compound?
Answer: ~50 fold

Question: What about the Kd (CXCR2 [2]; live HEK293T cells transiently expressing CXCR2_Nluc, 37 °C, read-out: Kd (equilibrium saturation binding)) of the same compound?
Answer: 0.25 ± 0.01 nM

Question: What about the “passage of the cell membrane” value (CXCR2 [2]; live HEK293T cells, inferred from cellular binding) of the same compound?
Answer: able to pass the cell membrane
